Measurements: US6696484B2, “Method and compositions for regulation of 5-alpha reductase activity” (University of Chicago Office of Technology and Intellectual …, priority 1997, dated 2004)

Legend:
MCF-7 tumors = assay: Growth of MCF-7 tumors in female nude mice; format: in vivo, BALB/c athymic (nude) mice
LNCaP 104-S tumors = assay: Growth of LNCaP 104-S tumors in nude mice; format: in vivo, BALB/c athymic (nude) mice; conditions: TP implanted at the time of castration; from 299±27 (SE) mm^3; ±SE
PC-3 tumors = assay: Growth of PC-3 tumors in nude mice; format: in vivo, BALB/c athymic (nude) mice
LNCaP 104-R2 tumors [1] = assay: Growth of LNCaP 104-R2 tumors in castrated male nude mice; format: in vivo, BALB/c athymic (nude) mice
[2] = Biological effects of TP implants in nude mice (serum testosterone, seminal vesicle weight, body weight); format: in vivo, BALB/c athymic (nude) mice; conditions: 4th week after androgen implantation
Text: (§1) BALB/c athymic (nude) male (LNCaP, PC-3 cell lines) and female (MCF-7 cell line) mice (Taconic Inc., Germantown, N.Y.), 5 to 7 weeks-old, were used. Mice were housed in a pathogen-free environment, four to five mice per cage. Cages (filter top), bedding and water were autoclaved before use. Feed was irradiated Pico Lab Mouse Chow 20 5058 (Purina). All procedures involving animals were approved by the University of Chicago Institutional Animal Care and Use Committee. For the tumor growth studies, 10^6 cells in 0.25 ml of culture medium were mixed with 0.25 ml of Matrigel™ (Collaborative Research, Bedford, Mass.) and were injected subcutaneously into one or both flanks of the mice as described previously (Liao et al., 1995). Tumor size was measured weekly and tumor volume was calculated using the formula L×W×H×0.52 (Janek and Hartman, 1975). Bilateral orchiectomy and subcutaneous implantation or removal of pellets were performed under Metofane anesthesia. Blood samples were obtained by heart puncture or from the orbital plexus while mice were under anesthesia and analyzed for testosterone levels by radioimmunoassay or PSA levels by dual-site reactive enzymatic immunoassay (Tandem®-E PSA, Hybritech, San Diego, Calif.). […] All numerical data are expressed as the average of the values obtained from 4 to 6 tumors and the standard error. […]

LNCaP 104-R2 tumors [3] = assay: Expression of AR, c-myc and PSA by LNCaP 104-R2 tumors (ribonuclease protection assay, serum PSA immunoassay); format: in vivo, BALB/c athymic (nude) mice; conditions: after 1 week of TP treatment
Text: as §1

LNCaP 104-S cells = assay: Proliferation of LNCaP 104-S cells in culture; format: cell-based, human; conditions: 0.1 nM R1881 vs androgen-depleted media
Protocol: Androgen-dependent LNCaP 104-S (passage 37) and androgen-independent LNCaP 104-R±sublines were isolated as described previously (Kokontis et al., 1994). The characteristics of these cells in vitro were confirmed before injection into nude mice. […] LNCaP 104-R2 cells grew in charcoal-treated media without additional androgen. Their proliferation was not stimulated but was repressed by 0.1 nM R1881. LNCaP 104-S cells were maintained in DMEM (Gibco) supplemented with 1 nM 5α-DHT and 10% FBS (Summit Biotechnology) and LNCaP 104-R2 cells were maintained in DMEM supplemented with 10% FBS treated with charcoal to remove steroid (Kokontis et al., 1994). PC-3 and MCF-7 cell lines were obtained from the American Type Culture Collection (Rockville, Md.), and were maintained in DMEM supplemented with 10% FBS.

Structure (SMILES) | effect on growth of MCF-7 tumors (MCF-7 tumors) | LNCaP 104-S tumor size 4 weeks after castration with TP implant (LNCaP 104-S tumors) [mm^3] | effect on growth of AR negative PC-3 tumors (PC-3 tumors) | LNCaP 104-R2 tumor size within 4 weeks after removal of TP (LNCaP 104-R2 tumors [1]; TP implanted at 4th week, removed at 7th week, regrew from 96±26 (SE) mm^3) [mm^3] | LNCaP 104-R2 tumor size four weeks after TP implantation (LNCaP 104-R2 tumors [1]; TP implanted at 7th week, from 884±64 (SE) mm^3) [mm^3] | body weight of nude mice [2] | increase of seminal vesicle weight ([2]; vs castrates without TP) | increase of serum PSA (LNCaP 104-R2 tumors [3]) | increase of the level of PSA mRNA in tumor samples (LNCaP 104-R2 tumors [3]) | increase of proliferation of LNCaP 104-S cells (LNCaP 104-S cells)
CCC(=O)O[C@H]1CC[C@H]2[C@@H]3CCC4=CC(=O)CC[C@]4(C)[C@H]3CC[C@]12C [TP, testosterone propionate] | not affected | 965±166 | did not affect | 641±157 | 208±33 | no loss | about 10 times | more than 10 fold | more than 10 fold | –
C[C@]1(O)CC[C@H]2[C@@H]3CCC4=CC(=O)CCC4=C3C=C[C@@]21C [R1881, 17 β-hydroxy-17 α-methyl-estra-4,9,11-trien-3-one] | – | – | – | – | – | – | – | – | – | 10-13 fold
